The test system of data set [1] is Rattus norvegicus. Nature of the data set: AUC in Sprague-Dawley rat at 2 mg/kg, iv. Type of data set: ADME, organism-based, Plasma. Details: dose 2 mg/kg, route intravenous. To be noted: in vivo.
Data set [2] can be described thus: Drug level in Sprague-Dawley rat blood at 10 mg/kg, ig after 0.083 hrs. Format: ADME, organism-based. Details: dose 10 mg/kg, route intragastric. To be noted: po, read-out: Drug uptake.
Data set [3] is described as follows: Drug level in Sprague-Dawley rat blood at 2 mg/kg, iv after 0.5 hrs. The settings on record: read-out: Drug uptake. Format: ADME, organism-based. Details: dose 2 mg/kg, route intravenous.
Data set [4] is described as follows: Half life in Sprague-Dawley rat at 2 mg/kg, iv. Type of data set: ADME, organism-based. Details: dose 2 mg/kg, route intravenous. The settings on record: in vivo.
In data set [5] the test system is Hepatitis B virus. Nature of the data set: Antiviral activity against HBV assessed as inhibition of viral early antigen secretion. Format: functional, organism-based.
Data set [6] can be described thus: Drug level in Sprague-Dawley rat blood at 2 mg/kg, iv after 0.083 hrs. Details: dose 2 mg/kg, route intravenous. To be noted: read-out: Drug uptake. Format: ADME, organism-based.
Data set [7] can be described thus: Drug level in Sprague-Dawley rat blood at 2 mg/kg, iv after 24 hrs. To be noted: read-out: Drug uptake. Details: dose 2 mg/kg, route intravenous. Type of data set: ADME, organism-based.
Data set [8] can be described thus: Drug level in Sprague-Dawley rat blood at 10 mg/kg, ig after 0.25 hrs. Format: ADME, organism-based. Details: dose 10 mg/kg, route intragastric. The settings on record: po, read-out: Drug uptake.
Data set [9] in a line: Cmax in Sprague-Dawley rat at 10 mg/kg, ig. Type of data set: ADME, organism-based. The settings on record: in vivo, po. Details: dose 10 mg/kg, route intragastric.
For data set [10], the system named is Rattus norvegicus. Nature of the data set: AUC in Sprague-Dawley rat at 10 mg/kg, ig. Details: dose 10 mg/kg, route intragastric. To be noted: in vivo, po. Format: ADME, organism-based, Plasma.
A short description of data set [11]: Drug level in Sprague-Dawley rat blood at 2 mg/kg, iv after 8 hrs. Format: ADME, organism-based. Details: dose 2 mg/kg, route intravenous. To be noted: read-out: Drug uptake.
Data set [12] in a line: Drug level in Sprague-Dawley rat blood at 2 mg/kg, iv after 1 hr. Format: ADME, organism-based. Details: dose 2 mg/kg, route intravenous. The settings on record: read-out: Drug uptake.
In data set [13] the test system is Rattus norvegicus. Nature of the data set: Clearance in Sprague-Dawley rat at 2 mg/kg, iv. Type of data set: ADME, organism-based. Details: dose 2 mg/kg, route intravenous. To be noted: in vivo.
The nature of data set [14]: Drug level in Sprague-Dawley rat blood at 2 mg/kg, iv after 2 hrs. The settings on record: read-out: Drug uptake. Details: dose 2 mg/kg, route intravenous. Type of data set: ADME, organism-based.
A short description of data set [15]: Drug level in Sprague-Dawley rat blood at 2 mg/kg, iv after 0.25 hrs. Format: ADME, organism-based. Details: dose 2 mg/kg, route intravenous. The settings on record: read-out: Drug uptake.
A short description of data set [16]: Drug level in Sprague-Dawley rat blood at 10 mg/kg, ig after 0.5 hrs. Format: ADME, organism-based. To be noted: po, read-out: Drug uptake. Details: dose 10 mg/kg, route intragastric.
The nature of data set [17]: Drug level in Sprague-Dawley rat blood at 10 mg/kg, ig after 1 hr. Format: ADME, organism-based. Details: dose 10 mg/kg, route intragastric. The settings on record: po, read-out: Drug uptake.
The nature of data set [18]: Volume of distribution at steady state in Sprague-Dawley rat at 2 mg/kg, iv. Type of data set: ADME, organism-based. Details: dose 2 mg/kg, route intravenous. To be noted: in vivo, read-out: Vdss.
A short description of data set [19]: Drug level in Sprague-Dawley rat blood at 2 mg/kg, iv after 4 hrs. To be noted: read-out: Drug uptake. Details: dose 2 mg/kg, route intravenous. Type of data set: ADME, organism-based.
Data set [20] can be described thus: Cytotoxicity against human HepG2(2.2.15) cells. Type of data set: cell-based.
A short description of data set [21]: Selectivity index, ratio of CC50 for human HepG2(2.2.15) cells to IC50 for HBV early antigen secretion. Format: functional.
Data set [22] concerns Rattus norvegicus. As to the kind of experiment: Oral bioavailability in Sprague-Dawley rat at 10 mg/kg. To be noted: in vivo. Format: ADME, organism-based.
The nature of data set [23]: Drug level in Sprague-Dawley rat blood at 10 mg/kg, ig after 2 hrs. Format: ADME, organism-based. Details: dose 10 mg/kg, route intragastric. To be noted: po, read-out: Drug uptake.
Data set [24] has as its system Hepatitis B virus. Nature of the data set: Antiviral activity against HBV assessed as inhibition of viral surface antigen secretion. Type of data set: functional, organism-based.
The nature of data set [25]: Selectivity index, ratio of CC50 for human HepG2(2.2.15) cells to IC50 for HBV surface antigen secretion. Type of data set: functional.
Data set [26] can be described thus: Tmax in Sprague-Dawley rat at 10 mg/kg, ig. Type of data set: ADME, organism-based. Details: dose 10 mg/kg, route intragastric. To be noted: in vivo, po.
Data set [27] can be described thus: Drug level in Sprague-Dawley rat blood at 10 mg/kg, ig after 4 hrs. Type of data set: ADME, organism-based. To be noted: po, read-out: Drug uptake. Details: dose 10 mg/kg, route intragastric.
Data set [28] can be described thus: Initial plasma concentration n Sprague-Dawley rat at 2 mg/kg, iv. Type of data set: ADME, organism-based. Details: dose 2 mg/kg, route intravenous.
The nature of data set [29]: Drug level in Sprague-Dawley rat blood at 10 mg/kg, ig after 24 hrs. Type of data set: ADME, organism-based. Details: dose 10 mg/kg, route intragastric. The settings on record: po, read-out: Drug uptake.
The nature of data set [30]: Drug level in Sprague-Dawley rat blood at 10 mg/kg, ig after 8 hrs. Format: ADME, organism-based. To be noted: po, read-out: Drug uptake. Details: dose 10 mg/kg, route intragastric.

Where only a bound is given, the exact number is not on record here.

In the case of `CC(=O)O[C@@H](C[C@@H](C)C1=C2C[C@H](OC(C)=O)[C@H]3[C@@]4(C)CCC(=O)C(C)(C)[C@@H]4CC[C@]3(C)[C@@]2(C)CC1)[C@@H](OC(C)=O)C(C)(C)OC(C)=O`, the AUC – broadly, concentration integrated over time – with Rattus norvegicus [1] was found to be 510 ng·h/mL; in the data set on Rattus norvegicus [10], 1040 ng·h/mL. Also, the figures for the concentration at 0.083 h in data set [2] and in [6] were 8.6 ng/mL and 567 ng/mL, respectively. The concentration at 0.5 h in data set [3] was found to be 246 ng/mL; in data set [16], 170 ng/mL. Besides, the half-life (usually the time in which the quantity being followed falls by half) in data set [4] is 1.63 h. In addition, the values for the half-inhibitory concentration (IC50) in the data set on Hepatitis B virus [5] and with Hepatitis B virus [24] were 11 µM and 4.8 µM, respectively. Moreover, the concentration at 24 h in data set [7] was 2.19 ng/mL; in data set [29], 2.03 ng/mL. Moreover, the concentration at 0.25 h in data set [8] turned out to be 70 ng/mL; in data set [15], 363 ng/mL. The Cmax – broadly, the maximum level reached in the sampled fluid or tissue – in data set [9] was 383 ng/mL. Further, the concentration at 8 h turned out to be 5.02 ng/mL in [11] and 6.28 ng/mL in [30]. For the same compound, the values for the concentration at 1 h in data set [12] and in data set [17] were 156 ng/mL and 383 ng/mL, respectively. The same compound showed a CL in the data set on Rattus norvegicus [13] of 64.5 mL/min/kg. In addition, the figures for the concentration at 2 h in [14] and in [23] were 71.8 ng/mL and 290 ng/mL, respectively. Further, the Vd in data set [18] is 5.73 L/kg. Further, the concentration at 4 h in [19] came out at 14.5 ng/mL; in data set [27] it was 55.9 ng/mL. In addition, the CC50 (commonly the concentration that lowers cell viability or growth by half) in data set [20] was over 1600 µM. The “Ratio CC50/IC50” value in data set [21] is over 145; in data set [25], over 333. In the data set with Rattus norvegicus [22], this compound gave an F of 40.9%. For the same compound, the time of peak concentration (Tmax) (commonly the time from dosing to the highest level) in [26] worked out at 1 h. The C0 in data set [28] was found to be 567 ng/mL.

Take `CCOCC(=O)OC(C)(C)[C@H](OC(C)=O)[C@H](C[C@@H](C)C1=C2C[C@H](OC(C)=O)[C@H]3[C@@]4(C)CCC(=O)C(C)(C)[C@@H]4CC[C@]3(C)[C@@]2(C)CC1)OC(C)=O`: the half-inhibitory concentration (IC50) (usually the midpoint of a concentration-inhibition curve) is 18 µM in the data set with Hepatitis B virus [5] and 14 µM with Hepatitis B virus [24]. In [20], this compound gave a CC50 of over 2800 µM. Also, the “Ratio CC50/IC50” value in data set [21] is over 156; in [25] it was over 200.

Take `CCC(=O)O[C@@H](C[C@@H](C)C1=C2C[C@H](OC(=O)CC)[C@H]3[C@@]4(C)CCC(=O)C(C)(C)[C@@H]4CC[C@]3(C)[C@@]2(C)CC1)[C@@H](OC(=O)CC)C(C)(C)OC(C)=O`: the values for the half-inhibitory concentration (IC50) in the data set with Hepatitis B virus [5] and in the data set with Hepatitis B virus [24] were 86 µM and 460 µM, respectively. In data set [20], this compound gave a CC50 of over 1700 µM. For the same compound, the “Ratio CC50/IC50” value in data set [21] is over 20; in data set [25], over 3.7.

In the case of `CC(=O)O[C@@H](C[C@@H](C)[C@]12CC[C@@]3(C)[C@@]1(C[C@H](OC(C)=O)[C@H]1[C@@]4(C)CCC(=O)C(C)(C)[C@@H]4CC[C@@]13C)O2)[C@@H](OC(C)=O)C(C)(C)OC(C)=O`, the figures for the half-inhibitory concentration (IC50) in the data set with Hepatitis B virus [5] and in the data set on Hepatitis B virus [24] were 61 µM and 46 µM, respectively. The same compound registered a CC50 in data set [20] of over 4000 µM. In addition, the results for the “Ratio CC50/IC50” value in [21] and in data set [25] were over 66 and over 87, respectively.

Regarding `Nc1ccn([C@@H]2CS[C@H](CO)O2)c(=O)n1` [LAMIVUDINE], the IC50 came out at 22000 µM with Hepatitis B virus [5] and 13000 µM in the data set on Hepatitis B virus [24]. In [20], this compound displayed a CC50 of 35000 µM. The “Ratio CC50/IC50” value in data set [21] amounted to 1.6; in data set [25], 2.7.
